Data as given in US11596626B2, “Compound for use against pathogenic Neisseria and Haemophilus species and Moraxella catarrhalis” (priority 2017, dated 2023).

Columns and labels:
[1] = test system: Commensal Neisseria; assay: Growth inhibition by area under the growth curve relative to solvent; format: cell-based; conditions: 5-50 μM, FIG. 5
Procedure: Before every experiment, bacteria were pre-cultured in 5 ml liquid medium for at least 2 hours then harvested and resuspended in PBS (phosphate buffered saline). Optical density (OD) was determined and a volume equal to an OD of 0.2 was inoculated into 5 ml of the respective medium. NQNO was added at the indicated amounts (5-50 μM). DMSO level was adjusted to 1% of final concentration. Samples were incubated for either 10.5 hours, until they reached stationary phase (three measured values in stationary phase) or until they reached an OD of 2.5. Optical density was determined every 0.5 h.
Growth experiments with the compounds represented by the Formulas (4) to (7) were conducted against various bacteria, including clinical isolates of N. gonorrhoeae including high priority 3rd generation cephalosporin/fluoroquinolone-resistant strains, strains isolated from disseminated disease settings, and commensal Neisseria and other commensal bacteria and evaluated (FIGS. 5 and 11). Growth of the indicated bacteria was measured as described in Example 1. Growth inhibition was quantified by measuring the “area under the curve” in the presence of the indicated concentrations of the respective compound (5-50 μM) relative to growth in the presence of the solvent only. Black areas indicate growth inhibition with <30% growth compared to control.

[2] = test system: HeLa cells; assay: MTT assay of metabolic activity (cytotoxicity); format: cell-based, human
Procedure: HeLa cells in 24-well plate were incubated for 24 h with concentrations of 0.5 to 10 μM NQNO or solvent (DMSO) as a control. Metabolic activity as a measure of mitochondrial respiration was recorded using 3-(4,5-Dimethylthiazol-2-yl)-2,5-diphenyltetrazoliumbromid (MTT) as reporting agent, Activity was measured with a plate reader at 550 nm, (FIG. 6). Shown are mean values+/S.D. of four replicate wells.
HeLa S3 cells were cultivated in Dulbecco's modified Eagle's medium (DMEM) medium supplemented with 10% fetal calf serum and passaged every 2-3 days. Primary human vaginal epithelial cells (hVEC/MS74) were obtained from A. J. Schaeffer (Feinberg School of Medicine, Northwestern University, Chicago, Ill.) and are derived from vaginal tissue of a post-menopausal person. The cell line was created through immortalization of these cells with human papilloma virus 16, E6 and E7 genes according to literature (N. Rajan et. al., Characterization of an immortalized human vaginal epithelial cell line. J Urol 163, 616-622 (2000)). […]
All plates were coated overnight at 4° C. with 0.1% gelatine in PBS before use. […] 0D550 was measured using a Thermo Fisher Varioskan Flash spectrophotometer.

[3] = Stability in deuterated methanol by proton NMR; format: physicochemical; conditions: 25 mM in deuterated methanol, 25° C. or 37° C., 28 days
Procedure: Two samples of NQNO were dissolved in deuterated methanol (CD3OD) to reach a final concentration of 25 mM. Samples were kept at 25° C. or 37° C. for 28 days and proton NMR spectra were measured with the same acquisition parameters every week and the spectra compared with the ones from day 0.

[4] = Stability in DMEM with 10% fetal calf serum by LC-MS; format: physicochemical; conditions: 100 μM in DMEM with 10% fetal calf serum, 24° C. and 37° C.
Procedure: Stability of 100 μM NQNO in Dulbecco's modified Eagle's medium (DMEM) medium supplemented with 10% fetal calf serum at 24° C. and 37° C. was evaluated over a period of 4 days. Samples were taken at the beginning (day 0) and every second day. Samples were analyzed by LC-MS and the integrals of the detected NQNO (by using extracted ion chromatograms) compared to the integral of the control (100 μM NQNO in H2O) which was set to 100%.

Question: For CCCCCCCCCc1cc(=O)c2ccccc2n1O [NQNO, 1-Hydroxy-2-nonylquinolin-4(1H)-one], which “Growth inhibition (area under the curve relative to solvent)” value [1] is on record?
Answer: Its value is “not compromised”.

Question: What about the “Cytotoxicity (metabolic activity, MTT)” value ([2]; 10 μM, up to 24 h, preliminary experiment, FIG. 6) of the same molecule?
Answer: The value was “does not lead to cytotoxicity”.

Question: What about the “Cytotoxicity (metabolic activity, MTT)” value ([2]; up to 10 μM, 48 h, FIG. 12) of the same molecule?
Answer: The value was “did not exhibit signs of cytotoxicity”.

Question: What about the Stability in solvent [3] of the same molecule?
Answer: The Stability in solvent was “stable at 37 °C in deuterated methanol for at least one month”.

Question: What about the “Time stable in serum-containing cell culture medium” value [4] of the same molecule?
Answer: Its value is “at least 4 days”.
